From article PMC7035640 (Parasites & Vectors, 2020)
Where two headings read alike, the source gives them in different places.

Legend:
[1] = tested on: L. donovani infected macrophages (RAW 264.7); test: Cytokine quantification by ELISA in supernatants of L. donovani-infected RAW 264.7 macrophages; assay type: cell-based, mouse; settings: 24 h, 48 h and 72 h; CsA 10 μM, DHCsA-d 5 μM, SSG 9 μM
Description: (§1) Mouse RAW 264.7 macrophages (5.0 × 10^5 cells/per well), adhered for 24 h at 37 °C, 5% CO2, in PRMI 1640 medium supplemented with 10% FBS were infected with promastigotes at a macrophages-to-parasite ratio of 1:20 for 6 h at 37 °C, 5% CO2, and subsequently the non-infected parasites were removed by washing three times with PBS. Infected macrophages were incubated in PRMI 1640 medium and 10% FBS at 37 °C, 5% CO2, without drugs for 24 h. […] The cells were further incubated for 3 days, and the medium supernatants were retrieved at 24, 48 and 72 h. Subsequently, the cytokines IL-12, IL-10, IL-4, IFN-γ and TNF-α were measured utilizing the BD OpitELA ELISA Kit (BD). NO and H2O2 concentrations in the supernatants were detected by nitric oxide and hydrogen peroxide assay kits (Beyotime), respectively.

[2] = tested on: L. donovani cyclophilin A (LdCyPA); test: Western blotting of LdCyPA expression in intracellular amastigotes; assay type: cell-based, Leishmania donovani; settings: 48 h; CsA 10 μM, DHCsA-d 5 μM, SSG 9 μM; normalized to α-tubulin
Description: (§2) Polyclonal antibodies against LdCyPA were obtained to monitor protein expression. Representative peptides of LdCyPA were analyzed through two predictors for B cells, BEPIPRED and BCPRED12. […] Polyclonal antiserum was produced in New Zealand white rabbits. The rabbits were immunized with Freund’s adjuvant (Sigma-Aldrich), containing 1500 μg of LdCyPA peptide, on days 0, 15 and 30. The rabbits received three subcutaneous injections, the first in complete Freund’s adjuvant and later two in incomplete Freund’s adjuvant. Serum was obtained and antibody titers were estimated by ELISA on 25 and 42 days after the last injection.
(§3) These cells were then lysed with a protein lysis buffer supplemented with protease and phosphatase inhibitors and the protein concentration was determined by the BCA Kit (Beyotime). The extracted proteins were denatured for 5 min at 100 °C after adding appropriate amounts of loading buffer. Approximately 40 to 50 μg of proteins was loaded in each lane of a 12% polyacrylamide gel (Beyotime). […] The PVDF membranes were visualized with an enhanced chemiluminescence western blotting detection kit (Beyotime) and the protein bands were analyzed by densitometric studies using ImageJ software.

[3] = tested on: cyclophilin A (CyPA); test: Western blotting of CyPA expression in RAW 264.7 cells; assay type: cell-based, mouse; settings: 48 h; CsA 10 μM, DHCsA-d 5 μM, SSG 9 μM; normalized to α-tubulin
Description: These cells were then lysed with a protein lysis buffer supplemented with protease and phosphatase inhibitors and the protein concentration was determined by the BCA Kit (Beyotime). The extracted proteins were denatured for 5 min at 100 °C after adding appropriate amounts of loading buffer. Approximately 40 to 50 μg of proteins was loaded in each lane of a 12% polyacrylamide gel (Beyotime). Proteins were separated at 120 V until the dye front reached the bottom of the gel, followed by transfer of the gels to polyvinylidene fluoride (PVDF) membranes (EMD, MA, USA) in transfer buffer (25 mM Tris-HCl, 192 mM glycine, 20% methanol, 0.02% SDS, pH 8.3) and run at 200 mA for 60 min. The membranes were then soaked in a blocking buffer (1 × PBS, 0.1% Tween 20) and supplemented with 1% bovine serum albumin (Sigma-Aldrich) for 2 h, before incubating overnight at 4 °C individually with LdCyPA polyclonal antibody, CyPA antibody (Affinity, Dublin, OH, USA) and α-tubulin antibody (Affinity) at appropriate dilutions. All the primary antibodies were used at a 1:4000 dilution and horseradish peroxidase-conjugated anti-rabbit immunoglobulin secondary antibodies (Affinity) were used at a 1:5000 dilution. The PVDF membranes were visualized with an enhanced chemiluminescence western blotting detection kit (Beyotime) and the protein bands were analyzed by densitometric studies using ImageJ software.

[4] = tested on: L. donovani infected macrophages (RAW 264.7); test: NO and H2O2 quantification in supernatants of L. donovani-infected RAW 264.7 macrophages; assay type: cell-based, mouse; settings: 24 h, 48 h and 72 h; CsA 10 μM, DHCsA-d 5 μM, SSG 9 μM
Description: as §1

[5] = tested on: intracellular amastigotes of Leishmania donovani; test: Intracellular amastigote inhibition in infected RAW 264.7 macrophages, Wright's stain and microscopy; assay type: cell-based; settings: for Number of intracellular amastigotes compared to untreated (Wright's staining): CsA 10 μM, DHCsA-d 5 μM, SSG 9 μM; for IC50: intracellular amastigotes in RAW 264.7, mean ± SD
Description: (§4) Leishmania donovani strain MHOM/CN/IN/80/DD8 was used in this study. Leishmania promastigotes in the logarithmic phase were cultured at 28 °C in M199 medium at pH 7.4 (Sigma-Aldrich, Saint Louis, MO, USA), supplemented with 10% fetal bovine serum (Hyclone, Logan, UT, USA) and antibiotics (Pen-Strep, 100 U/ml penicillin-100 […] streptomycin sulphate).
(§5) RAW 264.7 cells (5.0 × 10^5 cells/per well) were plated on round glass coverslips in 24-well plates and allowed to adhere to the slides for 24 h at 37 °C, 5% CO2, in PRMI 1640 medium (Gibco, Franklin, TN, USA) supplemented with 10% FBS (Gibco). Adherent macrophages were infected with L. donovani promastigotes, at a macrophages-to-parasite ratio of 1:20 for 6 h at 37 °C, 5% CO2. Next, the non-infected parasites were removed by washing three times with PBS, and the infected macrophages were incubated in 37 °C in 5% CO2 with PRMI 1640 medium and 10% FBS without drugs for 24 h. […] At 24 and 48 h, the glass coverslips were fixed in methanol (Solarbio, Beijing, China) and stained with Wright’s stain (Solarbio). The numbers of parasites were determined using light microscopy by counting at least 200 cells per slide. The results are expressed as means of three independent experiments. The 50% inhibitory concentration (IC50) was calculated for promastigotes and intracellular amastigotes by fitting the values to a non-linear curve analysis.
(§6) All experiments were carried out in triplicates and repeated at least three times and the figures shown are representative of these experiments. IC50 were calculated according to a nonlinear regression using a log inhibitor-versus response equation with 95% confidence intervals in the GraphPad Prism 6.0 software. The data were analyzed using Student’s t-test for comparison of two groups and data values were expressed as the mean ± standard deviation (SD). Significant differences were determined and designated with asterisks as follows: *P < 0.05; **P < 0.01; ***P < 0.001 and ****P < 0.0001.

[6] = tested on: intracellular amastigotes of L. donovani; test: Transmission electron microscopy of intracellular amastigotes in RAW 264.7 macrophages; assay type: cell-based, Leishmania donovani; settings: 48 h, DHCsA-d 5 μM; for Ultrastructure of intracellular amastigotes (mitochondria): CsA 10 μM, SSG 9 μM
Excerpt: (§7) Next, the cells were dehydrated in acetone and embedded in epoxy resin. Stained with lead citrate and observed under a Hitachi HT7700 transmission electron microscope.

[7] = tested on: L. donovani promastigotes; test: Transmission electron microscopy of promastigotes; assay type: cell-based, Leishmania donovani; settings: 48 h; CsA 16 μM, DHCsA-d 12 μM, SSG 20 μM
Excerpt: as §7

[8] = tested on: L. donovani promastigotes; test: Promastigote inhibition, flow cytometry (annexin V-FITC/PI); assay type: cell-based, Leishmania donovani; settings: mean ± SD of three independent experiments
Description: as §4
Inhibition rate (%) was calculated as follows: Inhibition rate (%) = 100% − [(No. of live parasites in treated sample/No. of live parasites in untreated control) × 100%].
as §5, with “experiments.” for “experiments. The 50% inhibitory concentration (IC50) was calculated for promastigotes and intracellular amastigotes by fitting the values to a non-linear curve analysis.”
as §6

[9] = tested on: L. donovani cyclophilin A (LdCyPA); test: Western blotting of LdCyPA expression in promastigotes; assay type: cell-based, Leishmania donovani; settings: 48 h; CsA 16 μM, DHCsA-d 12 μM, SSG 20 μM; normalized to α-tubulin
Description: as §2, §3

[10] = tested on: murine macrophages (RAW 264.7); test: Cytotoxicity assessment, Cell Counting Kit-8; assay type: cell-based, mouse
Description: Murine macrophages were cultivated in a 96-well plate using PRIM 1640 medium containing 10% FBS and maintained at 37 °C, 5% CO2, for 24 h. […] The cytotoxicity was measured at 24 and 48 h following a standard protocol.

[11] = 24 h, mean ± SD, read-out: Cytotoxicity (RAW 264.7) CC50
[12] = 48 h, mean ± SD, read-out: Cytotoxicity (RAW 264.7) CC50

Compound	IFN-γ level vs untreated infected cells [1]	IL-4 level vs untreated infected cells [1]	IL-10 level vs untreated infected cells [1]	IL-12 level vs untreated infected cells [1]	TNF-α level vs untreated infected cells [1]	Expression of LdCyPA in intracellular amastigotes vs untreated [2]	Expression of CyPA in RAW 264.7 cells vs untreated [3]	H2O2 production vs untreated infected cells [4]	NO production vs untreated infected cells [4]	Number of intracellular amastigotes compared to untreated (Wright's staining) ([5]; 24 h)	IC50 ([5]; 24 h) [µM]	Number of intracellular amastigotes compared to untreated (Wright's staining) ([5]; 48 h)	IC50 ([5]; 48 h) [µM]	Ultrastructure of intracellular amastigotes (mitochondria) [6]	Ultrastructure of promastigote mitochondria [7]	IC50 ([8]; 24 h) [µM]	IC50 ([8]; 48 h) [µM]	Expression of LdCyPA in promastigotes vs untreated [9]	CC50 [10, 11] [µM]	CC50 [10, 12] [µM]	also measured
CCCC[C@@H](C)[C@@H](O)[C@H]1C(=O)N[C@@H](CC)C(=O)N(C)CC(=O)N(C)[C@@H](CC(C)C)C(=O)N[C@@H](C(C)C)C(=O)N(C)[C@@H](CC(C)C)C(=O)N[C@@H](C)C(=O)N[C@H](C)C(=O)N(C)[C@@H](CC(C)C)C(=O)N(C)[C@@H](CC(C)C)C(=O)N(C)[C@@H](C(C)C)C(=O)N1C [DHCsA-d, dihydrocyclosporin A]	significant increases	significantly decreased	significantly decreased	significant increases	significant increases	no significant changes	no significant changes	significantly decreased	significantly decreased	reduced	5.23 ± 2.1	basically absent	4.84 ± 0.4	disintegrated	completely disorganized	21.2 ± 1.2	12.1 ± 1.1	no significant changes	7.98 ± 0.4	6.65 ± 0.7	Share of intracellular amastigotes degraded in parasitophorous vacuoles [6]: Almost half
O.O.O.O.O.O.O.O.O.O=C([O-])[C@@H]1[O][Sb](=[O])([O][Sb]2(=[O])[O][C@H]([C@H](O)CO)[C@H](O)[C@H](C(=O)[O-])[O]2)[O][C@H]([C@H](O)CO)[C@@H]1O.[Na+].[Na+].[Na+] (stereo partly drawn) [SSG, Sodium stibogluconate]	significant increases	significantly decreased	significantly decreased	significant increases	significant increases	no significant changes	no significant changes	significantly decreased	significantly decreased	reduced	9.51 ± 0.5	basically absent	8.27 ± 0.1	disintegrated	completely disorganized	32.3 ± 1.6	20.2 ± 1.4	no significant changes	> 120	> 120	CC50 ([10]; RAW 264.7, time not given in the sentence, read-out: CC50): > 120 µM
